Source: patent publication US10246456B2, “IRAK4 inhibiting agents” (BIOGEN MA INC., priority 2014, dated 2019)

Legend:
IRAK4 = IRAK4 (Homo sapiens (Human), UniProt Q9NWZ3); experiment: IRAK-4 AlphaScreen biochemical kinase assay; conditions: 1 nM IRAK4, 1 mM ATP, 3.5 h at RT
Procedure, shortened: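 AlphaScreen read-out: streptavidin beads bind the biotinylated peptide and protein A beads bind the anti-phosphothreonine antibody, so energy transfer reports phosphorylation of the peptide. The kinase is human IRAK-4.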

IL-6 in A549 cells = experiment: Cell-based IL-6 ELISA assay in IL-1beta stimulated A549 cells; conditions: 2 ng/ml human IL-1beta overnight
Procedure, shortened: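 A549 cells (2.5×10^4/well, DMEM/10% FBS) pretreated 30 min at 37 C with compound, 10-point serial dilution from 10 uM, then stimulated overnight with 2 ng/ml human IL-1beta. Secreted IL-6 in supernatant quantified by human IL-6 ELISA.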

Sequence of IRAK4 (Q9NWZ3 whole entry, species assumed): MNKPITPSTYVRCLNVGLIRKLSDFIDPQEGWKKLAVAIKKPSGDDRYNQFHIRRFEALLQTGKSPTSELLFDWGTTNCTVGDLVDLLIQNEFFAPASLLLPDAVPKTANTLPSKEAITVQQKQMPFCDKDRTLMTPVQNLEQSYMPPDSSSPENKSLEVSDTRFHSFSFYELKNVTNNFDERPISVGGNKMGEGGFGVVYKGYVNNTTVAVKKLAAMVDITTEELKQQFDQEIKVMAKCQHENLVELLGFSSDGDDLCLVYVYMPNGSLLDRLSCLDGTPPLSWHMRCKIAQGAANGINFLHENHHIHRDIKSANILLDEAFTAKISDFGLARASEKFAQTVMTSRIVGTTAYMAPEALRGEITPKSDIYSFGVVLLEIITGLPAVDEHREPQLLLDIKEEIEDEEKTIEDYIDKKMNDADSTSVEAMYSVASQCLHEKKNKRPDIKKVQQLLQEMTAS

IC50 (IRAK4) [µM] | EC50 (IL-6 in A549 cells) [µM] | Compound
1 to 10 | 1 to 10 | CCCC(O)c1cccc(-c2ccc3cnn(-c4cccc(CO)n4)c3c2)n1 (stereo not shown) [Example 550, 1-(6-(1-(6-(hydroxymethyl)pyridin-2-yl)-1H-indazol-6-yl)pyridin-2-yl)butan-1-ol]
< 0.1 | ≤ 1 | C[C@H](N)c1cccc(-c2cc(-c3ncccn3)c3cnn(-c4cccc(CO)n4)c3c2)n1 [Example 364, (S)-(6-(6-(6-(1-aminoethyl)pyridin-2-yl)-4-(pyrimidin-2-yl)-1H-indazol-1-yl)pyridin-2-yl)methanol]
< 0.1 | ≤ 1 | CC(O)c1cccc(-n2ncc3ccc(-c4cccc([C@H](C)N)n4)cc32)n1 (single isomer, unassigned) [Example 416]
< 0.1 | ≤ 1 | COc1cc(-c2cccc([C@@H](N)C3CC3)n2)cc2c1cnn2-c1cncc(CO)n1 [Example 496, (S)-(6-(6-(6-(amino(cyclopropyl)methyl)pyridin-2-yl)-4-methoxy-1H-indazol-1-yl)pyrazin-2-yl)methanol]
< 0.1 | ≤ 1 | CC1COC(c2cc(-c3cccc([C@H](C)N)n3)cc3c2cnn3-c2cccc(CO)n2)=N1 (stereo partly drawn) [Example 528, (6-(6-(6-((S)-1-aminoethyl)pyridin-2-yl)-4-(4-methyl-4,5-dihydrooxazol-2-yl)-1H-indazol-1-yl)pyridin-2-yl)methanol]
< 0.1 | ≤ 1 | CCC[C@H](N)c1cccc(-c2ccc3cnn(-c4cccc(C(C)O)n4)c3c2)n1 (single isomer, unassigned) [Example 418]
< 0.1 | ≤ 1 | Cc1nc(-c2cc(-c3cccc([C@H](C)N)n3)cc3c2cnn3-c2cccc(CO)n2)sc1C [Example 377, (S)-(6-(6-(6-(1-aminoethyl)pyridin-2-yl)-4-(4,5-dimethylthiazol-2-yl)-1H-indazol-1-yl)pyridin-2-yl)methanol]
< 0.1 | ≤ 1 | C[C@H](N)c1cccc(-c2cc(-c3ccccn3)c3cnn(-c4cccc(CO)n4)c3c2)n1 [Example 373, (S)-(6-(6-(6-(1-aminoethyl)pyridin-2-yl)-4-(pyridin-2-yl)-1H-indazol-1-yl)pyridin-2-yl)methanol]
0.1 to 1 | ≤ 1 | CC(O)c1cccc(-n2ncc3ccc(-c4cccc([C@H](C)N)n4)cc32)n1 (single isomer, unassigned) [Example 415]
< 0.1 | ≤ 1 | CCC[C@H](N)c1cccc(-c2cc(NCC(CCl)C(=O)O)c3cnn(-c4cccc(CO)n4)c3c2)n1 (stereo partly drawn) [Example 336, 3-((6-(6-((S)-1-aminobutyl)pyridin-2-yl)-1-(6-(hydroxymethyl)pyridin-2-yl)-1H-indazol-4-yl)amino)-2-(chloromethyl)propanoic acid]
< 0.1 | ≤ 1 | CCC[C@H](N)c1cccc(-c2cc(Cl)c3cnn(-c4cccc(CO)n4)c3c2)n1 [Example 490, (S)-(6-(6-(6-(1-aminobutyl)pyridin-2-yl)-4-chloro-1H-indazol-1-yl)pyridin-2-yl)methanol]
< 0.1 | ≤ 1 | CCC[C@H](N)c1cccc(-c2cc(N3CC(C(=O)O)C3)c3cnn(-c4cccc(CO)n4)c3c2)n1 [Example 348, (S)-1-(6-(6-(1-aminobutyl)pyridin-2-yl)-1-(6-(hydroxymethyl)pyridin-2-yl)-1H-indazol-4-yl)azetidine-3-carboxylic acid]
< 0.1 | ≤ 1 | C[C@H](N)c1cccc(-c2cc(C3=NCCO3)c3cnn(-c4cccc(CO)n4)c3c2)n1 [Example 524, (S)-(6-(6-(6-(1-aminoethyl)pyridin-2-yl)-4-(4,5-dihydrooxazol-2-yl)-1H-indazol-1-yl)pyridin-2-yl)methanol]
< 0.1 | ≤ 1 | CCC[C@H](N)c1cccc(-c2cc(OC)c3cnn(-c4nccc(C(F)(F)F)n4)c3c2)n1 [Example 504, (S)-1-(6-(4-methoxy-1-(4-(trifluoromethyl)pyrimidin-2-yl)-1H-indazol-6-yl)pyridin-2-yl)butan-1-amine]
